Columns and labels:
Type in all cases: functional, T cell line
[1] = Induction of anti-CD3 antibodies-stimulated human T cell activation at 1 uM assessed fold increase in IL-2 secretion measured by ELISA assay; also: reference of the scale not given here
[2] = Induction of anti-CD3/CD28 antibodies-stimulated human T cell activation at 0.3 uM assessed fold increase in CD25 expression measured by ELISA assay
[3] = Induction of anti-CD3/CD28 antibodies-stimulated human T cell activation at 0.3 uM assessed fold increase in IL-2 secretion measured by ELISA assay
[4] = Induction of anti-CD3/CD28 antibodies-stimulated human T cell activation at 1 uM assessed fold increase in CD25 expression measured by ELISA assay
[5] = Induction of anti-CD3 antibodies-stimulated human T cell activation at 1 uM assessed fold increase in CD25 expression measured by ELISA assay; also: reference of the scale not given here
[6] = Induction of anti-CD3/CD28 antibodies-stimulated human T cell activation at 1 uM assessed fold increase in IL-2 secretion measured by ELISA assay

SMILES | fold change (FC) [1] | fold change (FC) [2] | fold change (FC) [3] | fold change (FC) [4] | fold change (FC) [5] | fold change (FC) [6] | fold change (FC) ([2]; 0.3 µM) | fold change (FC) ([4]; 1 µM) | fold change (FC) ([1]; 1 µM) | fold change (FC) ([5]; 1 µM)
C[C@H](Cc1nncn1C)c1cc(-c2cncs2)nc(N2Cc3c(cccc3C(F)(F)F)C2=O)c1 | 0.051 | 1.01 | 1.01 | 1.01 | <=0.6 | 1.01 | – | – | – | –
CN(c1cc2c(c(C(F)(F)F)c1)CN(c1cccc([C@@](C)(F)C(F)(F)c3nncn3C)c1)C2=O)[C@@H]1CNC[C@@H]1F | 0.101 | 1.01 | 1.01 | 1.01 | 0.601 | 2.51 | – | – | – | –
Cn1cnnc1[C@H](F)C1(c2cccc(N3Cc4c(cc(CN5C6CCCC5CC6)cc4C(F)(F)F)C3=O)c2)COC1 (stereo in doubt; 675b) | – | – | – | – | – | – | 1.31 | 1.31 | – | –
Cc1cc(C(=O)Nc2cccc([C@]3(Cc4nncn4C)CCOC3)c2)nc(C2CC2)n1 (single isomer, unassigned) | 0.051 | 1.01 | 1.01 | 1.01 | 0.601 | 2.51 | – | – | – | –
C[C@H](Cc1nncn1C)c1cc(-c2cn[nH]c2)nc(N2Cc3c(cccc3C(F)(F)F)C2=O)c1 | 0.051 | <=1 | <=1 | <=1 | <=0.6 | <=1 | – | – | – | –
Cn1cnnc1CC1(c2cccc(NC(=O)c3ccnc4ccnn34)c2)COC1 | <=0.05 | 1.01 | 1.01 | 1.01 | 0.601 | 2.51 | – | – | – | –
Cn1cnnc1CC1(c2cccc(N3Cc4c(cc(C5=CN6CCC5CC6)cc4C(F)(F)F)C3=O)c2)COC1 | <=0.05 | 1.01 | 1.01 | 1.01 | 0.601 | 2.51 | – | – | – | –
Cn1cnnc1CC1(c2cccc(NC(=O)c3nc(C(F)(F)F)cs3)c2)COC1 | <=0.05 | 1.01 | 1.01 | 1.01 | 0.601 | 2.51 | – | – | – | –
Cn1cnnc1CC1(c2cccc(NC(=O)c3csc(C4CC4)n3)c2)COC1 | 0.051 | 1.01 | 1.01 | 1.01 | 0.601 | 1.01 | – | – | – | –
Cn1cnnc1-c1cnn(C)c1-c1cccc(N2Cc3c(cccc3C(F)(F)F)C2=O)c1 | 0.051 | 1.01 | 1.01 | 1.01 | 0.601 | 1.01 | – | – | – | –
Cc1cc(C(=O)Nc2cccc(C3(Cc4nncn4C)COC3)c2)n2nccc2n1 | <=0.05 | 1.01 | 1.01 | 1.01 | 0.601 | 1.01 | – | – | – | –
Cc1cc(C(=O)Nc2cccc(C3(Cc4nncn4C)COC3)c2)n2nc(C(F)(F)F)cc2n1 | <=0.05 | 1.01 | 1.01 | 1.01 | 0.601 | 1.01 | – | – | – | –
Cn1cnnc1[C@@H](F)C1(c2cccc(N3Cc4c(cc(CN5C6CCCC5CC6)cc4C(F)(F)F)C3=O)c2)COC1 (stereo in doubt; 675a) | – | – | – | – | – | – | 1.01 | 1.31 | 0.101 | >=1.001
Cn1cnnc1CC1(c2cccc(NC(=O)c3nc(C4CC4)cs3)c2)COC1 | <=0.05 | 1.01 | <=1 | 1.01 | <=0.6 | 1.01 | – | – | – | –

Source: ChEMBL document CHEMBL5050844 (2019)
